PubChem BioAssay (NCI)
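1) Cells in 96-well plates. 2) Compound, 48 h, 5 concentrations. 3) Linear interpolation between surrounding doses. 4) Unreached endpoint = highest concentration. At the TGI there is no net growth.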 Where a SMILES comes first, the peptide text is derived from it. The star is where a group is joined. Cbz = O=C(OCc1ccccc1)*; Boc = CC(C)(C)OC(=O)*; Bn = c1ccc(C*)cc1

Key:
Assay in all cases: growth of human tumour cells (NCI), 48 h
HT29 colon = tested on: HT29 colon
KM12 colon = tested on: KM12 colon
CAKI-1 renal = tested on: CAKI-1 renal
LOX IMVI melanoma = tested on: LOX IMVI melanoma
U251 CNS = tested on: U251 CNS
CCRF-CEM leukemia = tested on: CCRF-CEM leukemia
SK-MEL-28 melanoma = tested on: SK-MEL-28 melanoma
OVCAR-4 ovarian = tested on: OVCAR-4 ovarian
SK-MEL-5 melanoma = tested on: SK-MEL-5 melanoma
MOLT-4 leukemia = tested on: MOLT-4 leukemia
NCI-H522 lung = tested on: NCI-H522 lung
SNB-19 CNS = tested on: SNB-19 CNS
EKVX NSCLC = tested on: EKVX NSCLC
COLO 205 colon = tested on: COLO 205 colon
PC-3 prostate = tested on: PC-3 prostate
T-47D breast = tested on: T-47D breast
HS 578T breast = tested on: HS 578T breast
DU-145 prostate = tested on: DU-145 prostate
MDA-MB-435 = tested on: MDA-MB-435

SMILES | TGI (HT29 colon) [µM] | TGI (KM12 colon) [µM] | TGI (CAKI-1 renal) [µM] | TGI (LOX IMVI melanoma) [µM] | TGI (U251 CNS) [µM] | TGI (CCRF-CEM leukemia) [µM] | TGI (SK-MEL-28 melanoma) [µM] | TGI (OVCAR-4 ovarian) [µM] | TGI (SK-MEL-5 melanoma) [µM] | TGI (MOLT-4 leukemia) [µM] | TGI (NCI-H522 lung) [µM] | TGI (SNB-19 CNS) [µM] | TGI (EKVX NSCLC) [µM] | TGI (COLO 205 colon) [µM] | TGI (PC-3 prostate) [µM] | TGI (T-47D breast) [µM] | TGI (HS 578T breast) [µM] | TGI (DU-145 prostate) [µM] | TGI (MDA-MB-435) [µM]
C=CN1C(=O)OC[C@@H]1c1ccccc1 | > 100 | > 100 | > 100 | > 100 | > 100 | > 100 | > 100 | > 100 | > 100 | > 100 | > 100 | > 100 | > 100 | > 100 | – | – | – | – | –
NC1=NNC2(C(=O)N1)c1ccccc1-c1ccccc12 | – | > 10 | > 10 | > 10 | > 10 | > 10 | > 10 | – | > 10 | > 10 | – | > 10 | – | > 10 | > 10 | > 10 | – | – | –
CC(C)(C)OC(=O)NC(Cc1ccc(OCc2ccccc2)cc1)C(=O)NC(CCCCNC(=O)OCc1ccccc1)C(=O)O (configuration not stated) (Boc-Tyr(Bn)-Lys(Cbz)-OH; configuration not given here) | > 100 | > 100 | – | – | > 100 | > 100 | 44.2 | – | > 100 | 85.1 | – | > 100 | > 100 | > 100 | > 100 | – | > 100 | – | –
COc1ccc(N(C)Sc2ccccc2)cc1 | – | > 100 | – | > 100 | > 100 | 58.6 | > 100 | – | > 100 | 75.6 | > 100 | > 100 | – | > 100 | – | – | – | – | –
O=c1[nH]c(=O)n(COCCO)c2ccc(Br)cc12 | > 100 | > 100 | > 100 | > 100 | > 100 | > 100 | > 100 | > 100 | > 100 | > 100 | – | > 100 | > 100 | > 100 | – | – | – | > 100 | > 100
O/N=C/c1cc2c(cc1Br)OCO2 | > 100 | > 100 | > 100 | > 100 | > 100 | > 100 | – | > 100 | > 100 | > 100 | > 100 | > 100 | > 100 | > 100 | – | – | – | – | –
O=C(Cc1ccccc1)NN1C(=O)C(Cl)C1c1ccc([N+](=O)[O-])cc1 (configuration not stated) | > 100 | > 100 | > 100 | > 100 | > 100 | – | > 100 | > 100 | > 100 | > 100 | 76.3 | > 100 | > 100 | > 100 | – | – | – | – | –
COC(=O)[C@@H](O)[C@]1(C(=O)OC)C2O[C@@H](OC)[C@@H]1CCCCCC[C@H]2O | > 100 | > 100 | > 100 | > 100 | > 100 | > 100 | > 100 | > 100 | > 100 | > 100 | > 100 | > 100 | > 100 | > 100 | > 100 | – | > 100 | – | > 100
O=C(O)C12C3C4C1C1C2C3C1(Br)C41OCCO1 (configuration not stated) | > 100 | > 100 | – | > 100 | > 100 | > 100 | > 100 | – | > 100 | > 100 | > 100 | > 100 | > 100 | > 100 | – | – | – | – | –
CC(=O)CCC(=O)C(=[N+]=[N-])S(=O)(=O)c1ccccc1 | > 100 | > 100 | – | > 100 | > 100 | > 100 | > 100 | – | > 100 | > 100 | > 100 | > 100 | > 100 | > 100 | > 100 | – | > 100 | > 100 | > 100
OCC1OC(Oc2cc(O)cc(/C=C/c3ccc(O)cc3)c2)C(O)C(O)C1O (configuration not stated) | > 100 | > 100 | > 100 | > 100 | > 100 | > 100 | > 100 | > 100 | > 100 | > 100 | > 100 | > 100 | > 100 | – | > 100 | – | > 100 | > 100 | > 100
CN(C(=O)c1ccc(Cl)cc1)C(=S)N1CCN(c2ccccn2)CC1 | > 100 | > 100 | > 100 | > 100 | > 100 | > 100 | > 100 | > 100 | > 100 | > 100 | > 100 | > 100 | – | > 100 | – | – | – | – | –
COc1cc(Cl)cc(N(O)C(C)=O)c1OCc1ccccc1 | > 100 | > 100 | > 100 | > 100 | > 100 | > 100 | > 100 | > 100 | > 100 | > 100 | > 100 | > 100 | > 100 | > 100 | – | – | – | – | –
CCOC(=O)NC(C(=O)OCC)C(F)(F)F (configuration not stated) | > 100 | > 100 | > 100 | > 100 | > 100 | > 100 | > 100 | – | > 100 | > 100 | – | > 100 | > 100 | > 100 | > 100 | – | > 100 | – | –
N#Cc1c(-c2ccc(Cl)cc2)c(C#N)c(=O)n(NS(=O)(=O)c2ccccc2)c1S | – | – | 66.6 | 50.6 | 71.9 | > 100 | – | > 100 | 33.3 | > 100 | 47.4 | – | > 100 | > 100 | > 100 | – | – | > 100 | 65
O=c1c2c(c1=O)C1(SCCCS1)c1cc(Cl)ccc1O2 | > 100 | > 100 | > 100 | > 100 | > 100 | > 100 | > 100 | > 100 | > 100 | > 100 | > 100 | > 100 | > 100 | > 100 | > 100 | – | – | > 100 | > 100
